Results: patent US20190135793A1, “HETEROCYCLIC INHIBITORS OF KDM5 FOR THE TREATMENT OF DISEASE” (Board of Regents, The University of Texas System, priority 2017, published 2019)
pIC50: −log10 of the molar value. Where two headings read alike, the source gives them in different places.

Columns and labels:
KDM4C = target: T1, KDM4C (Homo sapiens, UniProt Q9H3R0); test: KDM4C AlphaScreen assay; type: biochemical; conditions: AlphaScreen; full length KDM4C 0.2 nM; biotinylated H3K9Me3 peptide 3 nM; 30 minutes at room temperature
T1 construct: Full length of KDM5B and KDM4C protein were purchased from Active Motif; purchased Active Motif 31858
T1 sequence (Q9H3R0 1-1056): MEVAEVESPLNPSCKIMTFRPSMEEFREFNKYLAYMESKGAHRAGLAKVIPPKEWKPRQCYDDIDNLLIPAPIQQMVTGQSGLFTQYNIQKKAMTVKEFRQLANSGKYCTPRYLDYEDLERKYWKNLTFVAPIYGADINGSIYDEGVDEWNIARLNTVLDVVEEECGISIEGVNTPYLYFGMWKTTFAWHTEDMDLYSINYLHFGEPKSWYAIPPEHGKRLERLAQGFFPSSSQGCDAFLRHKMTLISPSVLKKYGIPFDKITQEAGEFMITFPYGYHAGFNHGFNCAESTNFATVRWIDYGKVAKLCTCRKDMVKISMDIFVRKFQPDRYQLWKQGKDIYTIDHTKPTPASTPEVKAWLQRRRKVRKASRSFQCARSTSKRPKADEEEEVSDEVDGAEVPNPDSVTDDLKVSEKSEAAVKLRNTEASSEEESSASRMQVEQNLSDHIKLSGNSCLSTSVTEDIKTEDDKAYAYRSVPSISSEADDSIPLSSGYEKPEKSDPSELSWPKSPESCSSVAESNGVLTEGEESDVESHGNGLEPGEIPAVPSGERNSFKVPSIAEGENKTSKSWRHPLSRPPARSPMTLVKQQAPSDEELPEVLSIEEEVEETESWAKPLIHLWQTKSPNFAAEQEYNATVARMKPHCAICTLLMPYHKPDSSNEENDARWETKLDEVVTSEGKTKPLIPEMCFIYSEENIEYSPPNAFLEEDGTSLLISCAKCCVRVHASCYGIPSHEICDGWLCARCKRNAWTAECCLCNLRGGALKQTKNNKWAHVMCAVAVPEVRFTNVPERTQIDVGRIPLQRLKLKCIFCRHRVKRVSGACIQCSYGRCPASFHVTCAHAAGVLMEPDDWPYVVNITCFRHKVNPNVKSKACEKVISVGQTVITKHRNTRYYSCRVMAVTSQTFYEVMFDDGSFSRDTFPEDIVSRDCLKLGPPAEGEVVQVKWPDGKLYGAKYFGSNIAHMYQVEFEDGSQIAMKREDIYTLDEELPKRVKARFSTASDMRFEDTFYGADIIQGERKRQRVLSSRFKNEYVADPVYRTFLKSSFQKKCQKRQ
Procedure, shortened: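 Full-length KDM4C (0.2 nM final) was preincubated 15 min at RT with compound in HEPES pH 7.4 with Tween-20, BSA and TCEP. The reaction ran 30 min at RT after adding biotinylated peptide (3 nM final) in buffer with Fe(II), α-ketoglutarate and ascorbate. EDTA-containing AlphaScreen beads stopped it; IC50 was curve-fitted.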

KDM5B = target: T2, KDM5B (Homo sapiens, UniProt Q9UGL1); test: biochemical
T2 construct: Full length of KDM5B and KDM4C protein were purchased from Active Motif; purchased Active Motif 31832
Procedure, shortened: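 KDM5B (0.5 nM final) was preincubated with compound for 15 min at room temperature, then reacted with biotinylated peptide (3 nM final) for 25 min at room temperature.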

[1] = AlphaScreen, full length KDM5B 0.5 nM, biotinylated H3K4Me3 peptide 3 nM, 25 minutes at room temperature, read-out: KDM5B (IC50)

T2 sequence (Q9UGL1 whole entry): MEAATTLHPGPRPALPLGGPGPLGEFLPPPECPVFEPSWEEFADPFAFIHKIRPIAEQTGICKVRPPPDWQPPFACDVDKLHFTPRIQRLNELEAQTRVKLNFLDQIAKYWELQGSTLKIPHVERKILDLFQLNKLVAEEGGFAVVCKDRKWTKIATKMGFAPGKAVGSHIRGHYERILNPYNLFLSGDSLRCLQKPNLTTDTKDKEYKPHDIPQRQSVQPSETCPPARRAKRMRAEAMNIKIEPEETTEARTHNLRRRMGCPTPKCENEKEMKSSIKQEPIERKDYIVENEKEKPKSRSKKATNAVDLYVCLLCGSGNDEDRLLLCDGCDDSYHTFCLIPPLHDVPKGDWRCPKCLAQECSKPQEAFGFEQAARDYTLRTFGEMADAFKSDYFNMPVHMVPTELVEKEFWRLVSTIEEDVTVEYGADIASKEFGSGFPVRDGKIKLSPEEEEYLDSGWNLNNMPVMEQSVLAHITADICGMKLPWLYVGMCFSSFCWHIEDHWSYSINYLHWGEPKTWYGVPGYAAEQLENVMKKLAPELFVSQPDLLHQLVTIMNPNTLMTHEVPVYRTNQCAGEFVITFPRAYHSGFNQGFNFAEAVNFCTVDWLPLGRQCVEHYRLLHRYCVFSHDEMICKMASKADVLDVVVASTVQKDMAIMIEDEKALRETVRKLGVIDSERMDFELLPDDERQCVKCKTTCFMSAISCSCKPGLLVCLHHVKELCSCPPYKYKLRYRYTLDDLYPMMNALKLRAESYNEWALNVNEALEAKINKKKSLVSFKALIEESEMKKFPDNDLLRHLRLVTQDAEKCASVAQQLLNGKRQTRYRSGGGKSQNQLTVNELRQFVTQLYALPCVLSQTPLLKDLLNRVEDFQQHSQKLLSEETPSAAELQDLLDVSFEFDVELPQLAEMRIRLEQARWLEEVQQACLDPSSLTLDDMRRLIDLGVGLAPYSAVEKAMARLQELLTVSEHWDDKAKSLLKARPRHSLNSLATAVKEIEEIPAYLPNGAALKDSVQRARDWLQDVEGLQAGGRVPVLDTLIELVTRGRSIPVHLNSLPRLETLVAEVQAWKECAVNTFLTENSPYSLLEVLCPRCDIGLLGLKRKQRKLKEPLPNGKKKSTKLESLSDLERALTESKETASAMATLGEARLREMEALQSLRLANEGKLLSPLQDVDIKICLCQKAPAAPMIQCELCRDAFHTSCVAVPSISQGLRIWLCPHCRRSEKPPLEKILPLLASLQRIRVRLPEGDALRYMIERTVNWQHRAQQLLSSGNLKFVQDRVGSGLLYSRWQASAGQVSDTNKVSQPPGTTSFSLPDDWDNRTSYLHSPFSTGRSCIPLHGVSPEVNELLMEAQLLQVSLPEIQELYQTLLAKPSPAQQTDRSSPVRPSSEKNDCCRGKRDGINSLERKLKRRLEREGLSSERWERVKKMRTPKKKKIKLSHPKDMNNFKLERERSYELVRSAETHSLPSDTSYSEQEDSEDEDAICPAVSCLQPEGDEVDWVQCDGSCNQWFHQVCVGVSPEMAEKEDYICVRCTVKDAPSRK

Row | pIC50 (KDM4C) | pIC50 (KDM5B; [1]) | pIC50 (KDM5B) | SMILES
1 | 5.76 | 7.60 | – | CC(C)c1c(O)nc(-n2ccnc2)nc1-c1cnn(CC(=O)N2CCCC(O)C2)c1 (stereo not shown) [Example 74, 2-{4-[6-Hydroxy-2-(1H-imidazol-1-yl)-5-(propan-2-yl)pyrimidin-4-yl]-1H-pyrazol-1-yl}-1-(3-hydroxy-piperidin-1-yl)ethan-1-one]
2 | 5.91 | 7.57 | – | CC(C)c1c(O)nc(-n2ccnc2)nc1-c1cnn(C(C)(C)C)c1 [Example 75, 6-(1-tert-Butyl-1H-pyrazol-4-yl)-2-(1H-imidazol-1-yl)-5-(propan-2-yl)pyrimidin-4-ol]
3 | 5.61 | – | 7.42 | CC(C)c1c(O)nc(-n2ccnc2)nc1-c1cccc(CO)c1 [Example 77, 6-[3-(Hydroxymethyl)-phenyl]-2-(1H-imidazol-1-yl)-5-(propan-2-yl)pyrimidin-4-ol]
4 | 5.28 | – | 7.40 | CC(C)c1c(O)nc(-n2ccnc2)nc1-c1cccc(C#N)c1 [Example 79, 3-[6-Hydroxy-2-(1H-imidazol-1-yl)-5-(propan-2-yl)pyrimidin-4-yl]benzonitrile]
5 | 5.39 | – | 7.22 | CC(C)c1c(O)nc(-n2ccnc2)nc1-c1cnn(CC(C)(C)O)c1 [Example 81, 6-[1-(2-Hydroxy-2-methyl-propyl)-1H-pyrazol-4-yl]-2-(1H-imidazol-1-yl)-5-(propan-2-yl)pyrimidin-4-ol]
6 | 6.39 | 8.40 | – | CC(C)c1c(O)nc(-n2ccnc2)nc1-c1cnn(CC(=O)NCCCN(C)C)c1 [Example 90, N-[3-(Dimethylamino)-propyl]-2-{4-[6-hydroxy-2-(1H-imidazol-1-yl)-5-(propan-2-yl)pyrimidin-4-yl]-1H-pyrazol-1-yl}acetamide]
7 | 6.20 | – | 8.30 | CC(C)c1c(O)nc(-n2ccnc2)nc1-c1cnn(CC(=O)NCCN(C)C)c1 [Example 91, N-[2-(Dimethylamino)ethyl]-2-{4-[6-hydroxy-2-(1H-imidazol-1-yl)-5-(propan-2-yl)pyrimidin-4-yl]-1H-pyrazol-1-yl}acetamide]
8 | 6.28 | – | 8.22 | CC(C)c1c(O)nc(-n2ccnc2)nc1-c1cnn(CC(=O)NCCN2CCC(O)CC2)c1 [Example 92, 2-{4-[6-Hydroxy-2-(1H-imidazol-1-yl)-5-(propan-2-yl)pyrimidin-4-yl]-1H-pyrazol-1-yl}-N-[2-(4-hydroxypiperidin-1-yl)ethyl]-acetamide]
9 | 6.47 | 8.22 | – | CC(C)c1c(O)nc(-n2ccnc2)nc1-c1cnn(CC(=O)NCCN)c1 [Example 94, N-(2-Aminoethyl)-2-{4-[6-hydroxy-2-(1H-imidazol-1-yl)-5-(propan-2-yl)pyrimidin-4-yl]-1H-pyrazol-1-yl}-acetamide]
10 | 6.30 | – | 8.10 | CC(C)c1c(O)nc(-n2ccnc2)nc1-c1cnn(CC(=O)N2CCCC(N)C2)c1 (stereo not shown) [Example 98, 1-(3-Aminopiperidin-1-yl)-2-{4-[6-hydroxy-2-(1H-imidazol-1-yl)-5-(propan-2-yl)pyrimidin-4-yl]-1H-pyrazol-1-yl}ethan-1-one]
11 | 6.34 | 8.00 | – | CC(C)c1c(O)nc(-n2ccnc2)nc1-c1cnn(CC(=O)N2CCN(C)CC2)c1 [Example 99, 2-{4-[6-Hydroxy-2-(1H-imidazol-1-yl)-5-(propan-2-yl)pyrimidin-4-yl]-1H-pyrazol-1-yl}-1-(4-methyl-piperazin-1-yl)ethan-1-one]
12 | 5.90 | – | 7.92 | CC(C)c1c(O)nc(-n2ccnc2)nc1-c1cnn(CC(=O)NCCN2CCOCC2)c1 [Example 100, 2-{4-[6-Hydroxy-2-(1H-imidazol-1-yl)-5-(propan-2-yl)pyrimidin-4-yl]-1H-pyrazol-1-yl}-N-[2-(morpholin-4-yl)ethyl]-acetamide]

The next lines start with the compound.

Row | SMILES | pIC50 (KDM4C) | pIC50 (KDM5B; [1]) | pIC50 (KDM5B)
13 | CC(C)c1c(O)nc(-n2ccnc2)nc1-c1cccc(CNS(C)(=O)=O)c1 [Example 76, N-({3-[6-Hydroxy-2-(1H-imidazol-1-yl)-5-(propan-2-yl)pyrimidin-4-yl]phenyl}-methyl)methanesulfonamide] | 5.73 | – | 7.54
14 | CC(C)c1c(O)nc(-n2ccnc2)nc1-c1cnn(CCO)c1 [Example 80, 6-[1-(2-Hydroxyethyl)-1H-pyrazol-4-yl]-2-(1H-imidazol-1-yl)-5-(propan-2-yl)-pyrimidin-4-ol] | 5.46 | – | 7.29
15 | CC(C)c1c(O)nc(-n2ccnc2)nc1-c1cccc(C(=O)N2CCOCC2)c1 [Example 82, 2-(1H-Imidazol-1-yl)-6-[3-(morpholine-4-carbonyl)-phenyl]-5-(propan-2-yl)-pyrimidin-4-ol] | 5.10 | – | 7.14
16 | CC(C)c1c(O)nc(-n2ccnc2)nc1-c1ccccc1 [Example 83, 2-(1H-Imidazol-1-yl)-6-phenyl-5-(propan-2-yl)-pyrimidin-4-ol] | 5.57 | – | 7.05
17 | Cc1noc(C)c1-c1nc(-n2ccnc2)nc(O)c1C(C)C [Example 84, 6-(Dimethyl-1,2-oxazol-4-yl)-2-(1H-imidazol-1-yl)-5-(propan-2-yl)pyrimidin-4-ol] | 4.97 | – | 6.72
18 | CC(C)c1c(O)nc(-n2ccnc2)nc1-c1ccc(C(=O)NCC(=O)O)cc1 [Example 85, 2-({4-[6-Hydroxy-2-(1H-imidazol-1-yl)-5-(propan-2-yl)pyrimidin-4-yl]phenyl}-formamido)acetic acid] | 5.01 | – | 6.62
19 | CC(C)Cc1ccc(-c2nc(-n3ccnc3)nc(O)c2C(C)C)cc1 [Example 86, 2-(1H-Imidazol-1-yl)-6-[4-(2-methylpropyl)phenyl]-5-(propan-2-yl)pyrimidin-4-ol] | 5.00 | 5.95 | –
20 | CC(C)c1c(O)nc(-n2ccnc2-c2ncccn2)nc1Cl [Example 88, 6-Chloro-5-(propan-2-yl)-2-[2-(pyrimidin-2-yl)-1H-imidazol-1-yl]pyrimidin-4-ol] | 5.08 | 6.25 | –
21 | CC(C)c1c(O)nc(-n2ccnc2-c2ccccn2)nc1-c1cccc(CNS(C)(=O)=O)c1 [Example 89, N-({3-[6-Hydroxy-5-(propan-2-yl)-2-[2-(pyridin-2-yl)-1H-imidazol-1-yl]pyrimidin-4-yl]phenyl}methyl)methane-sulfonamide] | 4.70 | 6.58 | –
22 | CC(C)c1c(O)nc(-n2ccnc2)nc1-c1cnn(CC(=O)NCCCCN(C)C)c1 [Example 93, N-[4-(Dimethylamino)butyl]-2-{4-[6-hydroxy-2-(1H-imidazol-1-yl)-5-(propan-2-yl)pyrimidin-4-yl]-1H-pyrazol-1-yl}acetamide] | 6.32 | – | 8.22
23 | CNCCN(C)C(=O)Cn1cc(-c2nc(-n3ccnc3)nc(O)c2C(C)C)cn1 [Example 95, 2-{4-[6-Hydroxy-2-(1H-imidazol-1-yl)-5-(propan-2-yl)pyrimidin-4-yl]-1H-pyrazol-1-yl}-N-methyl-N-[2-(methylamino)ethyl]-acetamide] | 6.56 | – | 8.22
24 | CC(C)c1c(O)nc(-n2ccnc2)nc1-c1cnn(CC(=O)NCCN2CCC(F)(F)CC2)c1 [Example 96, N-[2-(4,4-Difluoropiperidin-1-yl)ethyl]-2-{4-[6-hydroxy-2-(1H-Imidazol-1-yl)-5-(propan-2-yl)pyrimidin-4-yl]-1H-pyrazol-1-yl}acetamide] | 6.11 | – | 8.15
25 | CC(C)c1c(O)nc(-n2ccnc2)nc1-c1cnn(CC(=O)NCC2CN(C)CCO2)c1 (stereo not shown) [Example 97, 2-{4-[6-Hydroxy-2-(1H-imidazol-1-yl)-5-(propan-2-yl)pyrimidin-4-yl]-1H-pyrazol-1-yl}-N-[(4-methyl-morpholin-2-yl)methyl]-acetamide] | 6.21 | – | 8.15
26 | CC(C)c1c(O)nc(-n2ccnc2)nc1-c1cnn(CC(=O)N2CCC(C#N)C2)c1 (stereo not shown) [Example 101, 1-(2-{4-[6-Hydroxy-2-(1H-imidazol-1-yl)-5-(propan-2-yl)pyrimidin-4-yl]-1H-pyrazol-1-yl}acetyl)-pyrrolidine-3-carbonitrile] | 6.06 | – | 7.92
